Test results taken from patent publication US11912755B2, “Endostatin fragments and variants for use in treating fibrosis” (iBio, Inc., priority 2015, dated 2024).
Ends that are not written are not given here.

What was measured:
[1] = system: human primary lung fibroblasts; test: Western blot of FN, Col1α1 and α-SMA in primary lung fibroblasts; format: cell-based
Experimental: Primary Fibroblast Culture. Human primary lung and skin fibroblasts were cultured. The explanted lungs of normal organ donors, patients with SSc or IPF, and clinically involved skin of SSc patients, a morphea patient and healthy donors were used for primary fibroblast culture. Approximately 2-cm pieces of peripheral lung and skin were minced and fibroblasts were cultured in Dulbecco's modified Eagle's medium (DMEM; Mediatech, Herndon, Va.) supplemented with 10% FBS, penicillin, streptomycin, and anti-mycotic agent, as previously described (Feghali et al., Arthritis Rheum 1999; 42:1451-7). All the cells were used between passages 3-6.
Western Blot Analysis. Cellular lysates were obtained from cultured fibroblasts as previously described (Pilewski et al., Am J Pathol 2005; 166:399-407). Briefly, 2.0×10^5 primary fibroblasts were cultured in 35-mm wells in 0.5% FBS-containing medium supplemented with 10 ng/ml of human recombinant TGF-β or PBS as vehicle control for 24 h, […] In some experiments, endostatin peptides were used without TGF-β stimulation. Cellular lysates were analyzed by Western blot. Signals were detected following incubation with horseradish peroxidase-conjugated secondary antibody and chemiluminescence (Perkin Elmer Life Sciences, Inc., Boston, Mass.). The intensity of individual bands with expected molecular sizes was semi-quantitatively analyzed using the image/J® software available at on the Internet (/rsb.info.nih.gov/ij/index.html), and normalized to individual GAPDH intensity.

[2] = system: bleomycin induced lung fibrosis; test: Bleomycin-induced pulmonary fibrosis in mice (E4); format: in vivo, mouse
Experimental: FIG. 10A-10C. E4 attenuates bleomycin induced lung fibrosis in vivo. FIG. 10A: Sixty μg of bleomycin was administrated intratracheally in combination with DMSO as a vehicle (Bleo) or E-4 (Bleo+E-4; 10 μg/ml). In some mice, E-4 (10 μg/ml) was administered intratracheally (IT) three days following bleomycin treatment (Bleo+E-4L). PBS was used as a vehicle for bleomycin (V). Lungs were harvested 10 days post-treatment. Representative images stained with H&E (left panel) and Masson trichrome (right panel) are representative of 3 independent experiments. Magnification, 100×. […] FIG. 10B: Quantification of acid soluble collagen obtained from mouse lungs treated with V. Bleo, Bleo+E-4, and Bleo+E-4L. The levels of collagen are presented as μg/mg (lung) from three independent experiments. Unpaired-t test was used for statistical analysis. *P<0.05. […] FIG. 10C: Lower magnification (2×) of mouse lung shown in FIG. 9 (BLM+E4/E4L IT day 10). For Bleo+E4L, Bleo was administered first, then there was a lag of three days between Bleo and E4 administration).
FIG. 11. […]
E4, a peptide representing the carboxy terminus of human endostatin, can attenuate fibrosis triggered by multiple fibrogenic factors. The anti-fibrotic effects of E4 can be detected whether administered concomitantly with or following the fibrogenic trigger. […]
For these studies, fibrosis was assessed by measurement of dermal thickness on H&E skin sections (skin), assessment of collagen levels by Masson Trichrome staining (skin and lung), and measurement of collagen levels by Sircol assay (lung). Furthermore, to confirm the mechanism by which E4 exerts its anti-fibrotic effects, the production of extra-cellular matrix (ECM) components, the levels of enzymes that promote matrix stabilization and thus accumulation and levels of those that degrade ECM components, and levels of transcription factors downstream of the pro-fibrotic triggers were evaluated. Results were assessed using the unpaired t test and the 3-way ANOVA (for the ID1 data).

[3] = IPF fibroblasts, 5, 10 and 20 μg/ml, vs vehicle control

## E4: SEQ ID NO: 21, amino acids 133-180 of human endostatin with a C-terminal amide (SYCETWRTEAPSATGQASSLLGGRLLGQSAASCHHAYIVLCIENSFMT-NH2; cysteine pairing not given here)
[1]; [3]
  Col1α1 levels: dose-dependently reduced
  FN levels: modest effect
[1]; fibrotic (IPF) lung fibroblasts, absence of TGF-β stimulation
  FN and Col1α1 levels: decreased
[1]; normal human lung fibroblasts, TGF-β 24 h, then 5 μg/ml for 48 h
  FN and Col1α1 levels: significantly suppressed
[1]; normal lung fibroblasts
  TGF-β-induced α-SMA levels: decreased
[2]; E4 10 μg/ml IT concomitantly with or three days following bleomycin, day 10
  fibrosis and Masson Trichrome staining in lung: marked reduction
[2]; E4 given 3 days after bleomycin, acid soluble collagen
  collagen levels in mouse lungs: significantly reduced
[2]; bleomycin IT day 1, E4 IP or IT at day 3
  bleomycin induced lung fibrosis on day 21: significant attenuation
